{"source": "patent US20210353648A1", "about": "“GRAPIPRANT UNIT DOSAGE FORMS” (Arrys Therapeutics, Inc., priority 2018, published 2021)", "experiment_in_all_cases": "Multiple ascending dose study: bone marker, percent change from baseline", "assay_type_in_all_cases": "in vivo, human", "key": {"[1]": {"test_system": "osteocalcin", "excerpt": "(§1) Each bone marker (serum bone-specific alkaline phosphatase and osteocalcin, urinary N-terminal telopeptide of type I collagen) is expressed as percentage change from baseline and analyzed. To assess influence of potential outliers on the bone marker data analyses, the following analysis can be conducted first. Potential outliers are identified as outside an interval consistent with a normal distribution defined as (median±3.5 standard deviations [SD]) for each dosing regimen and day combination. The SD is a pooled estimate across all dosing regimen and day combinations, each estimated by the scaled inter-quartile range 0.75 (Q75-Q25). Explicitly, for each dosing regimen and day combination, its SD denoted by SDi is estimated by its scaled inter-quartile range 0.75 (Q75-Q25). The overall SD is estimated as\n(§2) Then, the (percent change from baseline) values are analyzed with a mixed effect model, with treatment (dosing regimen), day, and treatment-by-day interaction effects considered fixed and subject considered random. Baseline value is not included as a covariate. The model is fit separately to each group of cohorts (Cohorts 1-3 and 5). For Cohorts 1-3, days of interest are day 7 and day 14. For Cohort 5, days of interest are day 10 and day 17. For each group of cohorts, compound symmetry is assumed, and Restricted Maximum Likelihood Estimates are used. The least squares means (LSMeans) and 95% confidence intervals (CI) are obtained for each treatment and day combination. Within each treatment, LSMean percent changes from baseline at each post-dosing day (i.e., day 7 and day 14 for Cohorts 1-3, and day 10 and day 17 for Cohort 5) are obtained, along with their 95% CIs. In addition, for each post-dosing day, differences of the LSMean percent changes from baseline between active dosed regimen and placebo are obtained. The p-values comparing these differences from placebo are obtained using t-tests. No adjustments are made for multiple comparisons. […] If outliers are identified, additional mixed model analyses using the same mixed effect modeling as detailed above are to be conducted excluding the outliers. […] Individual percent-change-from-baseline profile versus time plots are plotted by treatment regimen."}, "[2]": {"test_system": "serum bone-specific alkaline phosphatase", "conditions": "for change from baseline in bone-specific alkaline phosphatase (least squares mean): 300 mg BID", "excerpt": "as §1, §2"}, "[3]": {"test_system": "urinary N-terminal telopeptide of type I collagen", "excerpt": "as §1, §2"}, "[4]": {"conditions": "50 mg, 14-day oral administration, healthy adults, post-dosing day 7"}, "[5]": {"conditions": "50 mg, 14-day oral administration, healthy adults, post-dosing day 14"}, "[6]": {"conditions": "150 mg, 14-day oral administration, healthy adults, post-dosing day 7"}, "[7]": {"conditions": "150 mg, 14-day oral administration, healthy adults, post-dosing day 14"}, "[8]": {"conditions": "250 mg, 17-day oral administration, elderly with minor renal impairment, post-dosing day 10"}, "[9]": {"conditions": "250 mg, 17-day oral administration, elderly with minor renal impairment, post-dosing day 17"}, "[10]": {"conditions": "300 mg, 14-day oral administration, healthy adults, post-dosing day 7"}, "[11]": {"conditions": "300 mg, 14-day oral administration, healthy adults, post-dosing day 14"}, "[12]": {"conditions": "elderly subjects, 250 mg BID versus placebo"}}, "data": [{"smiles": "CCc1nc2c(C)nc(C)cc2n1-c1ccc(CCNC(=O)NS(=O)(=O)c2ccc(C)cc2)cc1", "note": "[Grapiprant, N-((4-(2-ethyl-4,6-dimethyl-1H-imidazo[4,5-c]pyridin-1-yl)phenethyl)carbamoyl)-4-methylbenzenesulfonamide]", "values": [{"measurement": "change from baseline in osteocalcin (least squares mean)", "setting": "[1]; 50 mg BID, Day 7, healthy subjects, placebo 39.30%, p=0.023", "value": 1.40, "unit": "%"}, {"measurement": "LS Mean change in blood osteocalcin", "setting": "[1]; [4]", "value": "about −37.90%"}, {"measurement": "LS Mean change in blood osteocalcin", "setting": "[1]; [5]", "value": "about −13.58%"}, {"measurement": "LS Mean change in blood osteocalcin", "setting": "[1]; [6]", "value": "about −31.02%"}, {"measurement": "LS Mean change in blood osteocalcin", "setting": "[1]; [7]", "value": "about −10.29%"}, {"measurement": "LS Mean change in blood osteocalcin", "setting": "[1]; [8]", "value": "about −5.91%"}, {"measurement": "LS Mean change in blood osteocalcin", "setting": "[1]; [9]", "value": "about −3.96%"}, {"measurement": "change from baseline in osteocalcin (least squares mean)", "setting": "[1]; 300 mg BID, Day 14, healthy subjects, placebo 47.84%, p=0.045", "value": 14.37, "unit": "%"}, {"measurement": "LS Mean change in blood osteocalcin", "setting": "[1]; [10]", "value": "about −10.30%"}, {"measurement": "LS Mean change in blood osteocalcin", "setting": "[1]; [11]", "value": "about −33.47%"}, {"measurement": "bone marker difference between treatment groups", "setting": "[1]; [12]", "value": "no statistically significant differences"}, {"measurement": "LS Mean Difference in bone-specific alkaline phosphatase", "setting": "[2]; [4]", "value": "about −8.62%"}, {"measurement": "LS Mean Difference in bone-specific alkaline phosphatase", "setting": "[2]; [5]", "value": "about 7.16%"}, {"measurement": "LS Mean Difference in bone-specific alkaline phosphatase", "setting": "[2]; [6]", "value": "about 4.76%"}, {"measurement": "LS Mean Difference in bone-specific alkaline phosphatase", "setting": "[2]; [7]", "value": "about 1.23%"}, {"measurement": "LS Mean Difference in bone-specific alkaline phosphatase", "setting": "[2]; [8]", "value": "about −1.75%"}, {"measurement": "LS Mean Difference in bone-specific alkaline phosphatase", "setting": "[2]; [9]", "value": "about 3.88%"}, {"measurement": "change from baseline in bone-specific alkaline phosphatase (least squares mean)", "setting": "[2]; Day 7, healthy subjects, placebo 4.70%, p=0.020", "value": 20.80, "unit": "%"}, {"measurement": "change from baseline in bone-specific alkaline phosphatase (least squares mean)", "setting": "[2]; Day 14, healthy subjects, placebo −5.36%, p=0.006", "value": 14.36, "unit": "%"}, {"measurement": "LS Mean Difference (of percent change from baseline) in bone-specific alkaline phosphatase", "setting": "[2]; [10]", "value": "about 16.10%"}, {"measurement": "LS Mean Difference in bone-specific alkaline phosphatase", "setting": "[2]; [11]", "value": "about 19.72%"}, {"measurement": "bone marker difference between treatment groups", "setting": "[2]; [12]", "value": "no statistically significant differences"}, {"measurement": "LS Mean change in N-telopeptide of type I collagen", "setting": "[3]; [4]", "value": "about 14.77%"}, {"measurement": "LS Mean change in N-telopeptide of type I collagen", "setting": "[3]; [5]", "value": "about −23.50%"}, {"measurement": "change from baseline in urine N-telopeptide (least squares mean)", "setting": "[3]; 150 mg BID, Day 14, healthy subjects, placebo 34.74%, p=0.050", "value": "−3.97", "unit": "%"}, {"measurement": "LS Mean change in N-telopeptide of type I collagen", "setting": "[3]; [6]", "value": "about −9.78%"}, {"measurement": "LS Mean change in N-telopeptide of type I collagen", "setting": "[3]; [7]", "value": "about −38.72%"}, {"measurement": "LS Mean change in N-telopeptide of type I collagen", "setting": "[3]; [8]", "value": "about −9.62%"}, {"measurement": "LS Mean change in N-telopeptide of type I collagen", "setting": "[3]; [9]", "value": "about −16.76%"}, {"measurement": "LS Mean change in N-telopeptide of type I collagen", "setting": "[3]; [10]", "value": "about 12.69%"}, {"measurement": "LS Mean change in N-telopeptide of type I collagen", "setting": "[3]; [11]", "value": "about −21.33%"}, {"measurement": "bone marker difference between treatment groups", "setting": "[3]; [12]", "value": "no statistically significant differences"}]}]}
